IC50 data for two molecules are collected here from patent US10494378B2, “Fused ring pyrimidine compound, intermediate, and preparation method, composition and use thereof” (GUANGZHOU MAXINOVEL PHARMACEUTICALS CO., LTD., priority 2015, dated 2019).

Common to all, as to type: biochemical
For assay [1], the target named is T1, FGFR1 kinase (Homo sapiens, UniProt P11362).
T1 construct: purchased Carna 08-133
The assay can be described thus: IC50 evaluation assay of FGFR1 kinase inhibition (Caliper). The note with it: 28° C.; average of two tests; read-out: IC50 (nM) inhibiting FGFR 1 kinase. Here is the method: (§1) 1. The compound was dissolved in 100% DMSO, diluted into solutions with appropriate concentration gradients with water according to experimental requirement, and added to a 96-well plate.
2. FGFR1 kinase (Carna, Cat. No. 08-133, Lot. No. 09CBS-0989) and FGFR2 kinase (Carna, Cat. No. 08-134, Lot. No. 07CBS-2468), JAK3 kinase (Carna, Cat. No. 08-135, Lot. No. 06CBS-3177) were diluted to the optimum concentration with the following buffer solution: 50 mM HEPES, pH 7.5, 0.0015% Brij-35, 2 mM DTT. Transfer to the 96-well plate and incubate with the compound at 28° C. for a period of time.
(§2) 3. The buffer solution (100 mM HEPES, pH 7.5, 0.0015% Brij-35, 0.2% Coating Reagent and […]) was added to terminate the reaction.
(§3) 4. The conversion rate was read with Caliper Reader. The inhibition rate was calculated as the average of two tests.

Assay [2] concerns the target T2, FLT3 kinase (FLT3-WT) (Homo sapiens, UniProt P36888).
T2 construct: purchased Carna 08-154
T2 sequence (P36888 27-993): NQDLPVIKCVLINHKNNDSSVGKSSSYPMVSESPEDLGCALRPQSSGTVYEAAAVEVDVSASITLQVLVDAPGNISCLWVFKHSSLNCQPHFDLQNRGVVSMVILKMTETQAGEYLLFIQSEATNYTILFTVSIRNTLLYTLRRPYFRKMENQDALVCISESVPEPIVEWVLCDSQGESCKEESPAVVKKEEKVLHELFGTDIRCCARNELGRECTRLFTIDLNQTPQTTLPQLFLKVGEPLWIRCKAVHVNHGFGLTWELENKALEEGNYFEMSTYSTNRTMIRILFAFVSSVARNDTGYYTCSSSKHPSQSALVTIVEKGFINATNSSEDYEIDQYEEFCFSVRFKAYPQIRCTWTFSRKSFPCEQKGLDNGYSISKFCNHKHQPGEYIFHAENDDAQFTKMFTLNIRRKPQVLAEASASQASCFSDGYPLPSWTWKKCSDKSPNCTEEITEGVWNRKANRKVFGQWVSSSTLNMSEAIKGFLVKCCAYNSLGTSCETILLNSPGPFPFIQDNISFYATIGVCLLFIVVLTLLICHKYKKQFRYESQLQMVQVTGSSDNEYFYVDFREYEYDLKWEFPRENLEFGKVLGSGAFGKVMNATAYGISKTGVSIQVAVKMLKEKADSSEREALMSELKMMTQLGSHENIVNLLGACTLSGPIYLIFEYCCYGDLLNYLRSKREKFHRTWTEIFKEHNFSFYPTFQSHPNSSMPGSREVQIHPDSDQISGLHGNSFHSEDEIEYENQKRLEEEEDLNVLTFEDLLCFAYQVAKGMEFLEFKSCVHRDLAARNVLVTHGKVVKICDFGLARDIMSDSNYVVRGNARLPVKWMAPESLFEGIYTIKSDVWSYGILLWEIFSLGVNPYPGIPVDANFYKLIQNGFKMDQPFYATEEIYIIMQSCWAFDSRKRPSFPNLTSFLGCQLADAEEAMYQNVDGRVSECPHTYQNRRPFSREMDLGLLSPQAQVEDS
The experiment in a line: IC50 evaluation assay of FLT3 kinase inhibition (Caliper). As to conditions: 28° C.; average of two tests; read-out: IC50 (nM) inhibiting FLT3-WT kinase. Here is the method: as §1
2. FLT3 kinase (Carna, Cat. No. 08-154, Lot. No. 07CBS-2350), FLT3-ITD kinase (Invitrogen, Cat. No. PV6191, Lot. No. 1753453) and FLT3-D835Y kinase (Invitrogen, Cat. No. PR7450A, Lot. No. 1629729C) were diluted to the optimum concentration with the following buffer solution: 50 mM HEPES, pH 7.5, 0.0015% Brij-35, 10 mM MgCl2, 2 mM DTT. Transfer to the 96-well plate and incubate with the compound at 28° C. for a period of time.
as §2, §3

Assay [3] addresses T3, LYNα kinase (Homo sapiens, UniProt P07948).
T3 construct: purchased Carna 08-171
The experiment in a line: IC50 evaluation assay of Src family kinase inhibition: LYNα. As to conditions: 28° C.; average of two tests; read-out: IC50 (nM) inhibiting Src family kinase LYNα. Here is the method:
as §1
(§4) 2. c-Src kinase (Carna, Cat. No. 08-173, Lot. No. 05CBS-1367), LYNαkinase (Carna, Cat. No. 08-171, Lot. No. 06CBS-3296D), FYN kinase (Carna, Cat. No. 08-068, Lot. No. 05CBS-1032), LCK kinase (Carna, Cat. No. 08-170, Lot. No. 07CBS-2482), HCK kinase (BPS, Cat. No. 40440, Lot. No. 1001), FGR kinase (Carna, Cat. No. 08-166, Lot. No. 05CBS-2781), YES kinase (Carna, Cat. No. 08-175, Lot. No. 06CBS-3247) were diluted to the optimum concentration with the following buffer solution: 50 mM HEPES, pH 7.5, 0.0015% Brij-35, 10 mM MgCl2, 2 mM DTT. Transfer to the 96-well plate and incubate with the compound at 28° C. for a period of time.
as §2, §3

Assay [4] addresses T4, FYN kinase (Homo sapiens, UniProt P06241).
T4 construct: purchased Carna 08-068
The experiment in a line: IC50 evaluation assay of Src family kinase inhibition: FYN. As to conditions: 28° C.; average of two tests; read-out: IC50 (nM) inhibiting Src family kinase FYN. As to the method:
as §1, §4, §2, §3

Molecules are shown by their SMILES. Bounds are passed on as bounds.

T4 sequence (P06241 whole entry): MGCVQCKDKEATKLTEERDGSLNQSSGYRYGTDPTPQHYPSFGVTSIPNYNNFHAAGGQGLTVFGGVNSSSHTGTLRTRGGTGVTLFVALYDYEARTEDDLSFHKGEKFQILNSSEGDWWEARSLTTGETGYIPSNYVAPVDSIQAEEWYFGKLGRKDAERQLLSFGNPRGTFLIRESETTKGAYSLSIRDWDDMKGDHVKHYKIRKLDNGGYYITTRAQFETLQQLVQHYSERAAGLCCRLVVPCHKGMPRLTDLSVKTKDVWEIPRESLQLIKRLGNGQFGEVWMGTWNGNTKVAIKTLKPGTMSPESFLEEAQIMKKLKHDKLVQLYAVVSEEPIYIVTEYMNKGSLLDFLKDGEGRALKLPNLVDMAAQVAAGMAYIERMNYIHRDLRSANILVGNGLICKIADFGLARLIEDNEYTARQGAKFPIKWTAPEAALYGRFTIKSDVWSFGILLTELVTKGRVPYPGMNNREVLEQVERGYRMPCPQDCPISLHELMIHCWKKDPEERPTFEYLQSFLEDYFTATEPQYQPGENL
T1 sequence (P11362 22-822): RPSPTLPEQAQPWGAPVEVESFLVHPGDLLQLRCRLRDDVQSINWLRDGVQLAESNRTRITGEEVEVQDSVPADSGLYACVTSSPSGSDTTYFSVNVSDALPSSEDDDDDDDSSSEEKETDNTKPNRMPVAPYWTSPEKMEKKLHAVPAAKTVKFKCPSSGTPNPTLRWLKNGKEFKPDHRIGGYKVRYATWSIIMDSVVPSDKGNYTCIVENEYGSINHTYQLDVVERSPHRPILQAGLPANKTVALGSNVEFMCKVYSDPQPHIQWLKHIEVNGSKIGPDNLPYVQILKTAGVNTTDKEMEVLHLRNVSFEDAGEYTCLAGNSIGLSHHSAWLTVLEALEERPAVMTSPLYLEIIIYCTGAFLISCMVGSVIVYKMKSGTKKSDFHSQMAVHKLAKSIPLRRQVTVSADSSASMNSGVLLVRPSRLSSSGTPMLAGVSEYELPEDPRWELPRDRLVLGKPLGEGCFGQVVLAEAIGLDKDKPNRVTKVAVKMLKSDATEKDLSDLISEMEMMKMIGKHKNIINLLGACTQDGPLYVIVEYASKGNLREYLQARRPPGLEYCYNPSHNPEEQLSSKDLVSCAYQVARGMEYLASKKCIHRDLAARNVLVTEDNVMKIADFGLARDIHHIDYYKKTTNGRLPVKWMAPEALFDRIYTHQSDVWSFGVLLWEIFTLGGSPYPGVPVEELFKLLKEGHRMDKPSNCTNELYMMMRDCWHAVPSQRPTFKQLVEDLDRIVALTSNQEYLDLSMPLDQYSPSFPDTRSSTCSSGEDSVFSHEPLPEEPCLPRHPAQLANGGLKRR
T3 sequence (P07948 whole entry): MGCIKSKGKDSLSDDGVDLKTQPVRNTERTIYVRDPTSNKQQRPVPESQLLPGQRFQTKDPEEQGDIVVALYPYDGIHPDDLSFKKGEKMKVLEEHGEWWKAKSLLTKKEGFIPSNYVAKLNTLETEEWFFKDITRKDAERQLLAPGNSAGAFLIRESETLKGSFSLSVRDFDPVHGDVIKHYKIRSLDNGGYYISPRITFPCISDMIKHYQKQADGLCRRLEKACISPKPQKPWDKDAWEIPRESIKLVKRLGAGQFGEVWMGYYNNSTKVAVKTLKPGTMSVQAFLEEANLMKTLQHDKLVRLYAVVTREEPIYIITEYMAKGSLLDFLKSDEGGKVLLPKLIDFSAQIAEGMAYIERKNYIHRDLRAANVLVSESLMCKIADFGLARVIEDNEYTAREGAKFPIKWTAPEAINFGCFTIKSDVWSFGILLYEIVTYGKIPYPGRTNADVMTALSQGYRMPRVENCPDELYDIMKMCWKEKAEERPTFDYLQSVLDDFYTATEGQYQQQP

Regarding `COc1cc(F)ccc1-c1c(C)sc2cnc(Nc3cnn(C4CCNCC4)c3)nc12` [Compound 31, N-[7-(4-fluoro-2-methoxyphenyl)-6-methylthieno[3,2-d]pyrimidinyl-2-yl]-1-(piperidinyl-4-yl)-1H-pyrazol-4-amine], the IC50 (as a rule, the point on the concentration scale where inhibition reaches its midpoint) in assay [1] is 5.1 nM; in assay [2] it was 0.28 nM; in assay [3], 1.3 nM; in assay [4], 3.7 nM.
For `COc1cc(F)ccc1-c1c(C)sc2cnc(Nc3cnn(C4CCN(CCO)CC4)c3)nc12` [Compound 34, 2-[4-(4-{[7-(4-fluoro-2-methoxyphenyl)-6-methylthieno[3,2-d]pyrimidinyl-2-yl]amino}-1H-pyrazol-1-yl)-piperidinyl-1-yl]-1-ethanol], in that order: 3.8 nM, less than 5 nM, less than 5 nM and less than 5 nM.
